The source of these data is ChEMBL document CHEMBL2203000, “Discovery of AC710, a Globally Selective Inhibitor of Platelet-Derived Growth Factor Receptor-Family Kinases” (ACS Med Chem Lett, 2012).

Calls of active or inactive are those of the source. The rule behind the calls is not given here. Bounds are passed on as bounds.

The nature of series [1]: Aqueous solubility of the compound at pH 2 to 7.4. Type of series: physicochemical. The following applies: buffer.
Series [2] in a line: Oral bioavailability in Sprague-Dawley rat plasma at 10 mg/kg by LC-MS/MS analysis. The series is classed as ADME, organism-based. The settings on record: Sprague-Dawley, plasma.
The nature of series [3]: AUC in Sprague-Dawley rat plasma at 10 mg/kg, po by LC-MS/MS analysis. Type of series: ADME, organism-based. Also on record: dose 10 mg/kg, route oral. The following applies: Sprague-Dawley, plasma.
Series [4] is described as follows: Clearance in Sprague-Dawley rat plasma at 1 mg/kg, iv and 10 mg/kg, po by LC-MS/MS analysis. The series is classed as ADME, organism-based.
Series [5] can be described thus: Aqueous solubility of the compound in water. Type of series: physicochemical.
Another series has as its system NFS-60. The series is described as follows: Antitumor activity against mouse M-NFS-60 cells xenografted in CD-1 nude mouse assessed as inhibition of tumor growth measured after 4 days of tumor implantation. The series is classed as functional, cell-based.
In series [6] the test system is Mus musculus. Kind of series: Antiarthritic activity in collagen-induced arthritis mouse assessed as decrease in joint swelling and inflammation at 10 to 30 mg/kg, po for 15 days. The series is classed as functional, organism-based.
Series [7] has as its system Mus musculus. The series is described as follows: Antiarthritic activity in po dosed collagen-induced arthritis mouse assessed as decrease in paw clinical scores administered for 15 days. Type of series: functional, organism-based.
Series [8] relates to MV4-11. Kind of series: Antitumor activity against human MV4-11 cells xenografted in SCID mouse assessed as complete reduction in tumor volume at 3 to 30 mg/kg for 2 weeks. Type of series: functional, organism-based. (Xenograft models place foreign cells or tissue in a host animal.)
The subject of series [9] is MV4-11. Kind of series: Antitumor activity against human MV4-11 cells xenografted in SCID mouse assessed as reduction in tumor volume at 0.3 mg/kg for 2 weeks. Set-up: dose 0.3 mg/kg. The series is classed as functional, organism-based.
In series [10] the test system is Rattus norvegicus. The series is described as follows: Toxicity in rat assessed as mortality at 800 mg/kg administered for 7 days. The series is classed as organism-based. Also on record: dose 800 mg/kg. The settings on record: in vivo, 168 h.
The test system of series [11] is Rattus norvegicus. Kind of series: Toxicity in rat assessed as effect on body weight at 800 mg/kg administered for 7 days. Type of series: organism-based. Set-up: dose 800 mg/kg. The settings on record: in vivo, 168 h.
Series [12] in a line: Antitumor activity against mouse M-NFS-60 cells xenografted in CD-1 nude mouse assessed as inhibition of tumor growth at 100 mg/kg, po measured after 4 of tumor implantation. The series is classed as functional. The settings on record: read-out: TGI.
Series [13] in a line: Antitumor activity against mouse M-NFS-60 cells xenografted in CD-1 nude mouse assessed as inhibition of tumor growth at 30 mg/kg, po measured after 4 of tumor implantation. The series is classed as functional. The settings on record: read-out: TGI.
For series [14], the system named is Rattus norvegicus. Kind of series: Toxicity in rat at 200 mg/kg administered for 7 days. Type of series: organism-based. Set-up: dose 200 mg/kg. The following applies: in vivo, 168 h.
The nature of series [15]: AUC in po dosed CD-1 mouse by LC-MS/MS analysis. Type of series: ADME, organism-based. The settings on record: plasma.
In series [16] the test system is Rattus norvegicus. The series is described as follows: Toxicity in rat assessed as diarrhea at 800 mg/kg administered for 7 days. The series is classed as organism-based. Also on record: dose 800 mg/kg. The following applies: in vivo, 168 h.
The next series has as its target Cytochrome P450 3A4 (Homo sapiens, UniProt P08684). Kind of series: Inhibition of CYP3A4. Type of series: ADME.
A further series deals with Cytochrome P450 2C19 (Homo sapiens, UniProt P33261). Kind of series: Inhibition of CYP2C19. Type of series: ADME.
The target of the next series is Cytochrome P450 2D6 (Homo sapiens, UniProt P10635). The series is described as follows: Inhibition of CYP2D6. The series is classed as ADME.
The target in the next series is T1, Cytochrome P450 1A2 (Homo sapiens, UniProt P05177).
T1 sequence (P05177 whole entry): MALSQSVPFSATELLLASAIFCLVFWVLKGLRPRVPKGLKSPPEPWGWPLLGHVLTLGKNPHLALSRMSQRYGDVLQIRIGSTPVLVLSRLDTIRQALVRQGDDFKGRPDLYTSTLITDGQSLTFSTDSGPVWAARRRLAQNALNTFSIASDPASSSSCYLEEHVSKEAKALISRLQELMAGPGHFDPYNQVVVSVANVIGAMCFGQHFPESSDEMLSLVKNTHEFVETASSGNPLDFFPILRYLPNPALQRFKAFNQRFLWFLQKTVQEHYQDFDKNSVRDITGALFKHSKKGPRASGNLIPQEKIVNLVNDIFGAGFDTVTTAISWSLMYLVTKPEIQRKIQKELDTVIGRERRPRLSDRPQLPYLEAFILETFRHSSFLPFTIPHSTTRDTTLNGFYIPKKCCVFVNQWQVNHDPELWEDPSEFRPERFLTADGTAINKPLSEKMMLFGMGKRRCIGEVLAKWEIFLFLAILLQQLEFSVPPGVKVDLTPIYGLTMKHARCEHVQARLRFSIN
The series is described as follows: Inhibition of CYP1A2. The series is classed as ADME.

A further series concerns the target Cytochrome P450 2C9 (Homo sapiens, UniProt P11712). Kind of series: Inhibition of CYP2C9. The series is classed as ADME.
Series [17] concerns the target T2, Mast/stem cell growth factor receptor Kit (Homo sapiens, UniProt P10721). The series is described as follows: Binding affinity to KIT expressed in HEK-293 cells. The series is classed as cell-based, HEK293.
The target of series [18] is T2, Mast/stem cell growth factor receptor Kit. Kind of series: Inhibition of KIT phosphorylation in human H526 cells. The series is classed as cell-based.
Series [19] is described as follows: Antitumor activity against mouse M-NFS-60 cells xenografted in CD-1 nude mouse assessed as inhibition of tumor growth at 10 mg/kg, po measured after 4 of tumor implantation. Type of series: functional. The following applies: read-out: TGI.

T2 sequence (P10721 whole entry): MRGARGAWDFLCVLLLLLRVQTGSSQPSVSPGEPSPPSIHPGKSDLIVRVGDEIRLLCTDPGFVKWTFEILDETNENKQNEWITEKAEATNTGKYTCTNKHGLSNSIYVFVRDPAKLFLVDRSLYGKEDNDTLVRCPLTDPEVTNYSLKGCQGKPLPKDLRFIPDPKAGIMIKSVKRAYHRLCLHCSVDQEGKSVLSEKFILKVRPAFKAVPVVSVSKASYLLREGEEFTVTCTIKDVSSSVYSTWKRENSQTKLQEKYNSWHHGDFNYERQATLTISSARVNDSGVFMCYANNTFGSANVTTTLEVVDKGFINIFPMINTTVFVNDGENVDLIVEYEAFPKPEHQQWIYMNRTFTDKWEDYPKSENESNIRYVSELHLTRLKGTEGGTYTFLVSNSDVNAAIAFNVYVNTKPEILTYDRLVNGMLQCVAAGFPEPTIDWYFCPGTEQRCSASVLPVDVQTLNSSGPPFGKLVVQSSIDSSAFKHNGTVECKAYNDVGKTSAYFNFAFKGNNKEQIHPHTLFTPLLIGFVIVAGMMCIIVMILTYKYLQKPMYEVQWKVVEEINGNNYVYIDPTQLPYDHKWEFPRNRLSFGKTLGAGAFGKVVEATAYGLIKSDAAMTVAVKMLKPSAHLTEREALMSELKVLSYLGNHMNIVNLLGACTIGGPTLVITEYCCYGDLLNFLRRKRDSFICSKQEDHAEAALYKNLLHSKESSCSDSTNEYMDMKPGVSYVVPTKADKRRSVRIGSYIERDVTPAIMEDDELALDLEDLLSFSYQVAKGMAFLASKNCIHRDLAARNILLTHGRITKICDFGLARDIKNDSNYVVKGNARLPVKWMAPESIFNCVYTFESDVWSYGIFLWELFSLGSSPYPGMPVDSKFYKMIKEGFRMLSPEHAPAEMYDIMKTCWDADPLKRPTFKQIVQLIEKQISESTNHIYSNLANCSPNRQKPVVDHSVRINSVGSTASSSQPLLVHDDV
Sequence of Cytochrome P450 2D6 (P10635 whole entry): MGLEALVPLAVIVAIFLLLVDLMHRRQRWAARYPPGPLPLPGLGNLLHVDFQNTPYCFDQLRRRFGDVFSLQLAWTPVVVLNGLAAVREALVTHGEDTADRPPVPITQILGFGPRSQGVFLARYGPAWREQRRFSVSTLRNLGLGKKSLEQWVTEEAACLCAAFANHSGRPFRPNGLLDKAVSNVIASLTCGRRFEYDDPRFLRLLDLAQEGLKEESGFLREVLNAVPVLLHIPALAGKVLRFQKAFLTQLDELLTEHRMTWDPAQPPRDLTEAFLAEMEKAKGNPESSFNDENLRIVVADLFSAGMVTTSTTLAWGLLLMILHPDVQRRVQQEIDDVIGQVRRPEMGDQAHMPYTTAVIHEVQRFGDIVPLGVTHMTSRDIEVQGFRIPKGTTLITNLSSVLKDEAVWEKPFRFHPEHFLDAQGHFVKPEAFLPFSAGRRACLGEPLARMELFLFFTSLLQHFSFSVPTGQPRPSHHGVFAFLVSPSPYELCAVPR
Sequence of Cytochrome P450 3A4 (P08684 whole entry): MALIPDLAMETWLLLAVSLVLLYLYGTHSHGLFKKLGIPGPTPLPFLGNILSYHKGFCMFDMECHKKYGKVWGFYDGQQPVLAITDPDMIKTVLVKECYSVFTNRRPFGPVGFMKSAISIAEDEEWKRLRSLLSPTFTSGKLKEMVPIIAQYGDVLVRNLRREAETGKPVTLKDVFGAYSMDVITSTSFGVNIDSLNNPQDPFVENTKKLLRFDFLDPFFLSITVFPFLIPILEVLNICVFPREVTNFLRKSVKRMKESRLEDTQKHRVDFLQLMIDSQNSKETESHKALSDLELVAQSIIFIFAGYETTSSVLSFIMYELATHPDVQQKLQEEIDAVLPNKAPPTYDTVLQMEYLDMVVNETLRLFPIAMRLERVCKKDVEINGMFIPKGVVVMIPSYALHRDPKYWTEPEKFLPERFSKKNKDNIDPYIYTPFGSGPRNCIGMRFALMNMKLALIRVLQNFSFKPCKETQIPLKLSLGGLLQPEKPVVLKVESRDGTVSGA
Sequence of Cytochrome P450 2C19 (P33261 whole entry): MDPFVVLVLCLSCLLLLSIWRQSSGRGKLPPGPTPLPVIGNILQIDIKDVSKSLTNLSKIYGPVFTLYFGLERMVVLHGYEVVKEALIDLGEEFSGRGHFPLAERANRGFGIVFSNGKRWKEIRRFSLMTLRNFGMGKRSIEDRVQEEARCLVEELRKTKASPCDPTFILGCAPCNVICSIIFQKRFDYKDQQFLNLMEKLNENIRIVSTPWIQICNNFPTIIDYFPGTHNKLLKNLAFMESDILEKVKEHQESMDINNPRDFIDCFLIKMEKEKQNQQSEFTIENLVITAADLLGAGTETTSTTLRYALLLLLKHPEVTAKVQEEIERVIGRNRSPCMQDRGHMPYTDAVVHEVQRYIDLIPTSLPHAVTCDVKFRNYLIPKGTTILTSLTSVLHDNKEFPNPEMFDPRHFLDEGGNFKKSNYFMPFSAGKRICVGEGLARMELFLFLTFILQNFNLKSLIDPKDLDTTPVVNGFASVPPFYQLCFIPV
Sequence of Cytochrome P450 2C9 (P11712 whole entry): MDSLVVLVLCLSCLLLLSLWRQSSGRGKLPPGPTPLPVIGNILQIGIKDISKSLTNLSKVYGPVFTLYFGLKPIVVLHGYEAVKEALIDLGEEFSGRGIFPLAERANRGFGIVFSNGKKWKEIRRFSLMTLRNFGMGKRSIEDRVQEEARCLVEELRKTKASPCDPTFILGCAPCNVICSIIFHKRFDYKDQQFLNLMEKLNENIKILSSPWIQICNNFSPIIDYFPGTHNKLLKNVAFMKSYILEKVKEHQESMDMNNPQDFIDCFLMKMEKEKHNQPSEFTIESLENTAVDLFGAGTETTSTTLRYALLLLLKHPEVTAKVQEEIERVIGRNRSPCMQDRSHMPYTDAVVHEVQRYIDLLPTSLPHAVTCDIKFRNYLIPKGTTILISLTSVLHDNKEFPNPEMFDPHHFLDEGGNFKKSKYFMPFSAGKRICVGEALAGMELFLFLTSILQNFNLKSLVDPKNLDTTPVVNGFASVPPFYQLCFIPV

A word on the solubility: it is the dissolved amount per volume that the medium holds. A word on the bioavailability: it is dose-corrected exposure relative to a reference, in per cent. For orientation: AUC means the area under the concentration-time curve, a measure of exposure. Regarding `CC(C)(C)c1cc(NC(=O)Nc2ccc(NC(=O)c3cc4ccccc4cn3)cc2)no1`, the solubility in series [1] was less than 5 µg/mL. For the same compound, the bioavailability in [2] came out at 9%. This compound also registered an AUC in series [3] of 0.8 µM·h. This compound had a clearance in [4] of 47 mL/min/kg.

Regarding `CCN1CCC(c2ccc(C(=O)Nc3ccc(NC(=O)Nc4cc(C(C)(C)C)on4)cc3)nc2)CC1`, the bioavailability in series [2] was found to be 9.9%. The area under the curve (AUC) in series [3] was determined as 0.9 µM·h. Besides, the clearance in [4] turned out to be 37.6 mL/min/kg.

Turning to `CCN1CCC(Oc2ccc(C(=O)Nc3ccc(NC(=O)Nc4cc(C(C)(C)C)on4)cc3)nc2)CC1.CS(=O)(=O)O`, the solubility in [5] came out at 1130 µg/mL.

As to `CC(C)N1CCC(Oc2ccc(C(=O)Nc3ccc(NC(=O)Nc4cc(C(C)(C)C)on4)cc3)nc2)CC1`, the bioavailability in [2] is 17.5%. Also, in [3], the AUC turned out to be 3.5 µM·h. The compound further came in with a clearance in [4] of 16 mL/min/kg.

Regarding `CN1C(C)(C)CC(Oc2ccc(C(=O)Nc3ccc(NC(=O)Nc4cc(C(C)(C)C)on4)cc3)nc2)CC1(C)C.CS(=O)(=O)O`, the solubility in series [5] was more than 1000 µg/mL.

Take `CCN1CCC(Cc2ccc(C(=O)Nc3ccc(NC(=O)Nc4cc(C(C)(C)C)on4)cc3)nc2)CC1`: the bioavailability in series [2] was found to be 12%. Besides, in [3], the AUC was 1.4 µM·h. The compound also came in with a clearance in [4] of 24 mL/min/kg.

Take `CC(C)(C)c1cc(NC(=O)Nc2ccc(NC(=O)c3ccc(OC4CCN(C(C)(C)C)CC4)cn3)cc2)no1`: the bioavailability in series [2] amounted to 22%. In series [3], this compound came in with an AUC of 5 µM·h. The compound further displayed a clearance in [4] of 15 mL/min/kg.

On to `CCN1C(C)(C)CC(Oc2ccc(C(=O)Nc3ccc(NC(=O)Nc4cc(C(C)(C)C)on4)cc3)nc2)CC1(C)C`, for which, in the series with NFS-60, the inhibition entry is “Dose-dependent effect”. Also, the inhibition entry with Mus musculus [6] and in the series with Mus musculus [7] was “Active” in each case. For the same compound, the outcome in the series with MV4-11 [8] and in the series on MV4-11 [9] was Active.

In the case of `CCN1C(C)(C)CC(Oc2ccc(C(=O)Nc3ccc(NC(=O)Nc4cc(C(C)(C)C)on4)cc3)nc2)CC1(C)C.CS(=O)(=O)O`, the solubility in series [5] was more than 1000 µg/mL.

In general, IC50 refers to the midpoint of a concentration-inhibition curve. A higher IC50 goes with weaker potency. What is called Kd is the concentration at which binding is half-saturated. Lower therefore signals a tighter complex. As for `CN1C(C)(C)CC(Oc2ccc(C(=O)Nc3ccc(NC(=O)Nc4cc(C(C)(C)C)on4)cc3)nc2)CC1(C)C` [listing 1 of 2 here], the Activity entry in the series with Rattus norvegicus [10] is reported as “Toxic”; with Rattus norvegicus [11] it was “Toxic”; in the series on Rattus norvegicus [14] it was “Non-toxic”; in the series on Rattus norvegicus [16], “Toxic”. Also, the inhibition in vivo at 100 mg/kg in series [12] was 92%. In addition, the inhibition in vivo at 30 mg/kg in [13] was 82%. Further, the values for the AUC in [15] and in [3] were 65.8 µM·h and 9.1 µM·h, respectively. Besides, the IC50 was more than 40 µM against Cytochrome P450 3A4; more than 40 µM against Cytochrome P450 2C19; more than 40 µM against Cytochrome P450 2D6; more than 40 µM against Cytochrome P450 1A2; more than 40 µM against Cytochrome P450 2C9; 0.008 µM in series [18]. In series [17], this compound displayed a Kd of 0.0011 µM. The same compound had a bioavailability in series [2] of 31.5%. In series [4], this compound had a clearance of 10.9 mL/min/kg.

In the case of `CN1C(C)(C)CC(Oc2ccc(C(=O)Nc3ccc(NC(=O)Nc4cc(C(C)(C)C)on4)cc3)nc2)CC1(C)C` [listing 2 of 2 here], the inhibition result with NFS-60 is “Dose-dependent effect”.

As to `CC1(C)CC(Oc2ccc(C(=O)Nc3ccc(NC(=O)Nc4cc(C(C)(C)C)on4)cc3)nc2)CC(C)(C)N1`, the bioavailability in series [2] was found to be 8%. Also, the exposure (AUC) in [3] was 2.4 µM·h. Moreover, the clearance in series [4] is 11 mL/min/kg.

`Cc1ccnc(C(=O)Nc2ccc(NC(=O)Nc3cc(C(C)(C)C)on3)cc2)c1`: the bioavailability in [2] was determined as 4%. In addition, the AUC in series [3] was found to be 0.5 µM·h. This compound gave a clearance in [4] of 37.9 mL/min/kg.

For `CCN1CCC(Oc2ccc(C(=O)Nc3ccc(NC(=O)Nc4cc(C(C)(C)C)on4)cc3)nc2)CC1` [listing 1 of 2 here], in the series on NFS-60, the inhibition entry is “Dose-dependent effect”.

Turning to `CC(C)(C)c1cc(NC(=O)Nc2ccc(NC(=O)c3cc(OC4CCNCC4)ccn3)cc2)no1`, the bioavailability in series [2] turned out to be 3%. Also, the AUC in [3] came to 0.4 µM·h. The clearance in series [4] turned out to be 35.8 mL/min/kg.

In turn, `CC(C)(C)c1cc(NC(=O)Nc2ccc(NC(=O)c3ccc(OC4CCN(C5CC5)CC4)cn3)cc2)no1` came in with a bioavailability in series [2] of 36%. Moreover, in [3], the exposure (AUC) was 9.5 µM·h. Also, the clearance in series [4] amounted to 12 mL/min/kg.

Turning to `CCN1CCC(Oc2ccc(C(=O)Nc3ccc(NC(=O)Nc4cc(C(C)(C)C)on4)cc3)nc2)CC1` [listing 2 of 2 here], in series [12], the inhibition in vivo at 100 mg/kg came to 73%. For the same compound, the inhibition in vivo at 30 mg/kg in [13] worked out at 46%. The inhibition in vivo at 10 mg/kg in series [19] amounted to 31%. Besides, the Activity entry with Rattus norvegicus [14] is given as “Non-toxic”; with Rattus norvegicus [16], “Toxic”. For the same compound, the AUC in [15] amounted to 9.9 µM·h; in series [3], 4.8 µM·h. The IC50 at Cytochrome P450 3A4 is more than 40 µM; against Cytochrome P450 2C19, more than 40 µM; against Cytochrome P450 2D6 it was more than 40 µM; on Cytochrome P450 1A2 it was more than 40 µM; at Cytochrome P450 2C9 it was more than 40 µM; in [18] it was 0.0079 µM. In series [17], this compound had a Kd of 0.0006 µM. In series [2], this compound came in with a bioavailability of 20%. The clearance in series [4] was found to be 25.8 mL/min/kg.
